“Also recorded” adds a separate entry of the source. Read-outs that look alike come from different tables or passages of the source.
Tests used:
AKT = conditions: PTEN mutated OPM2 MM cells, ref [30]; cited from earlier work
Ras/MAPK = conditions: cited from earlier work; for IL-6 induced activation of Ras/MAPK: refs [20, 22]
Cyclin D2 = conditions: two HMCL, ref [22]; cited from earlier work
[1] = test system: HMCL (NCIH929, OCI-MY1 and U266); test: Annexin-V/Propidium Iodide FACS apoptosis; assay type: cell-based, human; conditions: Annexin-V/PI; 3 HMCL
Description: (§1) The viability and proliferation of CYT387 treated HMCL and untreated/vehicle controls were determined using various methods as described previously. Proliferation was measured first using Celltiter 96 AQeous one solution cell proliferation assay MTS reagent (Promega) on a panel of 8 HMCL. Cells were cultured at 2.0×10^5 cell/ml in 100 μl fresh media in 96 well plates for 24, 48 and 72 hours with CYT387 (0.1-5 μM). 20 μl of MTS reagent was added for the final 4 hours of treatment and the plates were read at 490 nm using a Fluostar Optima plate reader (BMG Labtech). The viable cell numbers of a panel of 5 HMCL that were treated with CYT387 with and without IL-6 co-treatment was also measured by trypan blue staining and haemocytometer count. The HMCL NCI-H929, OCI-MY1 and U266 were then selected for further analysis. Apoptosis of CYT387 treated cells was assessed by FACS with Annexin-V and propidium iodide (PI) staining. HMCLs were treated for 24 or 72 hours with 1 or 5 μM CYT387 then harvested and washed in Annexin Buffer (0.01 HEPES, 0.14 M NaCl, 2.5 mM CaCl2, pH 7.4) and stained with Annexin-V FITC (Biosource) made up in Annexin Buffer for 30 minutes at room temperature. Unbound antibody was then washed off with Atmexin Buffer and cells were resuspended in Annexin Buffer with 62.5 ng/mi PI (Sigma-Aldrich) and analyzed by FACS.

[2] = test system: NCI-H929, OCI-MY1 and U266; test: PI FACS dose effect and synergy (Calcusyn) in HMCL; assay type: cell-based, human; conditions: 24 and 48 hours
Description: For the synergy experiments HMCL were treated with CYT387 in combination with bortezomib or melphalan for 24 and 48 hours before being harvested and resuspended in FACS Buffer (0.5% HI FBS in PBS) supplemented with 62.5 ng/ml PI (Sigma-Aldrich). Cells were immediately analysed by FACS. The proportion of PI positive cells was quantitated by subtracting the background death of untreated cells. Single drug treated cells were compared to combination treated cells and synergism was calculated using Calcusyn software (Biosoft).

p-ERK1/2 (pT202/pY204) = test: IL-6 and IGF-1 induced p-ERK, intracellular FACS, U266; assay type: cell-based, human; conditions: 2 μM CYT387 cotreatment, 15 minutes
Description: (§2) Activation of the JAK/STAT, PI3K/AKT and Ras/MAPK pathways was investigated using intracellular flow cytometry to measure the phosphorylation of STAT3 at tyrosine 705 (p-STAT3), AKT at serine 473 (p-AKT) and ERK1/2 at threonine 202 and tyrosine 204 (p-ERK). HMCL were stimulated alone with 10 ng/ml IL-6±[…] IGF-1 or stimulated in CC with HS5 stromal cells or primary BMSC with or without CYT387 treatment. For CC HS5 and primary BMSC were seeded into a 24 well plate at 2×10^5 cells/ml and allowed to establish for 4 hours, after which HMCL prestained with CD38 or CD138 FITC (BD) were added. MM cells were stimulated alone (10 ng/ml IL-6 or 5 ng/ml IL-6 and 100 ng/ml IGF-1), or in CC (direct CC with stroma or transwell (TW) CC with stroma) with or without either 60 minutes of CYT387 pretreatment or 15 minutes CYT387 co-treatment. After stimulation±treatment, MM cells were harvested and fixed with 2% paraformaldehyde for 10-30 minutes, washed then permeabilised with methanol overnight. Methanol was washed off and the cells were resuspended in p-STAT3 PE (BD), p-AKT PE (BD) or p-ERK (BD) and stained for 45-60 minutes at room temperature. Unbound antibody was washed off and the cells resuspended in 2% FBS PBS and acquired by FACS.

[3] = test system: HMCL (LP-1, NCI-H929, OPM2, RPMI-8226, ANBL-6, OCI-MY1, U266 and XG-1); test: MTS cell proliferation assay on a panel of 8 HMCL; assay type: cell-based, human
Description: as §1

p-STAT3 (pY705) [4] = test: STAT3 phosphorylation in HMCL in coculture with bone marrow stromal cells (HS5 or primary BMSC); assay type: cell-based, human; conditions: 15 minutes coculture with BMSC (with or without contact), co-treatment with 2 μM CYT387
Description: as §2

NCI-H929 [5] = test: Viable cell number by haemocytometer; assay type: cell-based; conditions: Homo sapiens; NCI-H929, 1 μM, after 72 hours; read-out: inhibition of cell proliferation
Description: as §1

OCI-MY1 = test: Viable cell number by haemocytometer; assay type: cell-based; conditions: Homo sapiens; OCI-MY1, 0.5 μM, after 72 hours; read-out: inhibition of cell proliferation
Description: as §1

U266 = test: Viable cell number by haemocytometer; assay type: cell-based; conditions: Homo sapiens, U-266; U266, 1 μM, after 72 hours; read-out: inhibition of cell proliferation
Description: as §1

[6] = test system: CD38+CD45− primary MM cells; test: Apoptosis (Apo 2.7) of ex-vivo primary patient MM cells, single agent and combination; assay type: cell-based, human; conditions: 24 hours, Calcusyn
Excerpt: Primary MM samples were obtained from Bone Marrow Aspirates from relapsed and refractory MM patients following written informed consent with approval from the Alfred Hospital Research and Ethics Committee and isolated and treated as previously described. Briefly, bone marrow mononuclear cells (BMMC) were isolated with Ficoll-Paque Plus (Amersham Biosciences), washed in PBS and red blood cells were lysed with NH4Cl solution (8.29 g/L ammonium chloride, 0.037 g/L EDTA, 1 g/L potassium bicarbonate). Cells were then washed again in PBS and quantitated by haemocytometer. BMMC samples were then cultured in complete RPMI-1640 media (as above for HMCL) for 24 hours. Subsequently the BMMC were plated at 5×10^5 cells/ml and were treated with CYT387 (5-50 μM) alone or (dependant on cell numbers) in combination with bortezoniib (5-40 nM) or melphalan (50-200 μM) for 24 and/or 48 hours. Drug-induced MM specific cell apoptosis was then compared to untreated and vehicle controls by staining for CD45 FITC (BD), CD38 PerCP-Cy5.5 (BD) and Apo 2.7 PE (Immunotech) to determine apoptosis in CD45−CD38+ MM cells. Samples were subsequently analyzed by FACS. Primary bone marrow stromal cells (BMSC) were also collected from patient BMMC, cells that adhered to the flask after an initial 24 hour culture were cultured with continued selection for adherent cells over several passages. […]

p-STAT3 (pY705) [7] = test: IL-6 induced STAT3 phosphorylation in HMCL (intracellular FACS, western blot); assay type: cell-based, human
Description: HMCL were treated with CYT387 (1 or 2 μM) for 60 minutes and then stimulated with 10 ng/ml IL-6 for 15 minutes. Protein lysates of CYT387 treated and untreated HMCL were made with RIPA Buffer (50 mM Tris.HCl pH 7.4, 150 mM NaCl, 1 mM PMSF, 1 mM EDTA, 5 μg/ml Aprotinin, 5 μg/ml Leupeptin, 1% Triton X-100, 1% Sodium deoxycholate and 0.1% SDS). Briefly cells were incubated in RIPA buffer on ice for 30-60 minutes before being centrifuged at 16,100×g for 20 minutes at 4° C. and the supernatant collected. Protein concentration was quantified using DC Protein Assay (Bio-Rad) as per manufacturer's instructions. Subsequently, 100 μg of each protein lysate was separated by 10% SDS-PAGE and blotted onto nitrocellulose (Hybond ECL, Amersham) using the Bio-Rad semi-dry transfer system. Membranes were blocked with 5% skim milk powder 0.1% Tween-20/PBS for 60 minutes then incubated with mouse monoclonal antiphospho-STAT3 (pY705, Santa Cruz), mouse monoclonal anti-STAT3 (Santa Cruz) or mouse monoclonal anti-a-tubulin (Sigma-Aldrich) for 1-2 hours at room temperature or overnight at 4° C. The blots were washed three times for 15 minutes in 0.1% Tween-20/PBS, then incubated with secondary HRP lagged antibody (swine anti-rabbit Ig HRP (Dako) or rabbit anti-mouse Ig HRP (Dako)) for 1-2 hours at room temperature before washing as above. […]

[8] = test system: HMCL (NCI-H929, OCI-MY1 and U266); test: Viable cell number by haemocytometer with and without IL-6; assay type: cell-based, human; conditions: CYT387 0.5-1 μM, 10 ng/ml IL-6, 72 hours
Description: as §1

p-AKT (pS473) = test: IL-6 and IGF-1 induced p-AKT, intracellular FACS, OCI-MY1; assay type: cell-based, human; conditions: 2 μM CYT387 cotreatment, 15 minutes
Description: as §2

NCI-H929 cells = test: Cell cycle analysis by FACS (PI/RNase); assay type: cell-based, human; conditions: after 24 and 72 hours treatment
Description: (§3) The effect of CYT387 treatment on HMCL cell cycling was measured after 24 and 72 hours. CYT387 (1 or 5 μM) treated and untreated HMCL were harvested, washed in PBS and resuspended in 100 μl PBS. Cells were fixed with 1 ml of cold 70% ethanol while being vortexed. Tubes were stored at −20° C. until analysis. Once all samples were collected tubes were centrifuged at 500×g for 10 minutes, the supernatant was carefully removed and the cells washed in 5 ml PBS. After the final wash cells were resuspended 250-500 μl of PI/RNase staining buffer (BD) and incubated in the dark at room temperature for 15 minutes before being analyzed by FAGS.

[9] = test system: HMCL (NCI-H929, OCI-MY1 and U266); test: Cell cycle analysis by FACS (PI/RNase); assay type: cell-based, human
Description: as §3

NCI-H929 [10] = test: Annexin-V/Propidium Iodide FACS apoptosis; assay type: cell-based; conditions: Homo sapiens, read-out: reduction in viable cells
Description: as §1

[11] = CYT387 in combination with bortezomib
[12] = CYT387 in combination with melphalan

N#C/C(=C/c1ccc(O)c(O)c1)C(=O)NCc1ccccc1 [AG490]
AKT activation (AKT): could also abrogate AKT activation
IL-6 induced Ras/MAPK activation (Ras/MAPK; in the hands of others, ref [31]): no decrease
IL-6 induced activation of Ras/MAPK (Ras/MAPK): reduce IL-6 induced activation of Ras/MAPK

Cc1cc(Nc2nc(N[C@@H](C)c3ncc(F)cn3)ncc2Cl)n[nH]1 [AZD1480]
IL-6 induced activation of Ras/MAPK (Ras/MAPK): reduce IL-6 induced activation of Ras/MAPK
Cyclin D2 (Cyclin D2): inhibited Cyclin D2

N#CCNC(=O)c1ccc(-c2ccnc(Nc3ccc(N4CCOCC4)cc3)n2)cc1 [CYT387, N-(cyanomethyl)-4-[2-[[4-(4-morpholinyl)phenyl]amino]-4-pyrimidinyl]-benzamide]
proportion of apoptotic cells [1]: increased proportion of apoptotic cells was detected in all 3 HMCL
apoptosis (PI+ cells), dose effect curves ([2]; CYT387 0.5-10 μM): induced apoptosis in 3 HMCL in a time and dose dependent manner
synergy with bortezomib (combination index, Calcusyn) [2, 11]: displayed synergism; also recorded: synergistic or nearly additive in 18/24 combinations
synergy with melphalan (combination index, Calcusyn) [2, 12]: displayed synergism; also recorded: Synergy is seen
IL-6 and IGF-1 induced p-ERK (p-ERK1/2 (pT202/pY204)): significantly inhibited; also recorded: significant reduction
most sensitive HMCL to CYT387 treatment (MTS) ([3]; 72 hours): NCI-H929 and XG-1 were the most sensitive
cell proliferation response by MTS assay ([3]; CYT387 0.1-5 μM, 24, 48 and 72 hours, 8 HMCL): Six of 8 HMCL had a time and dose dependent response
amount of p-STAT3 in the HMCL (p-STAT3 (pY705) [4]): dramatically reduced the amount of p-STAT3
inhibition at 1 µM (NCI-H929 [5]): 50%
inhibition at 0.5 µM (OCI-MY1): 50%
inhibition at 1 µM (U266): 44%
synergy with bortezomib in primary patient cells [6, 11]: synergy was also observed with bortezomib in some patients/doses
synergy with melphalan in primary patient cells [6, 12]: synergize with melphalan in ⅔ patients
phosphorylation of STAT3 in IL-6 stimulated samples (p-STAT3 (pY705) [7]; CYT387 0.5-2 μM for 1 hour, then IL-6 for 15 minutes, NCI-H929, OCI-MY1 and U266, FACS and western blotting): inhibited the phosphorylation of STAT3
Total STAT3 protein (p-STAT3 (pY705) [7]; western blot, CYT387 then IL-6 stimulation): unaffected
proliferation of HMCL in the presence of IL-6 [8]: able to reduce the proliferation of HMCL in culture even in the presence of IL-6
p-AKT activation after IL-6 and IGF-1 stimulation (p-AKT (pS473)): significantly reduced; also recorded: dramatic reduction
increase in cells in G2/M compared to untreated or vehicle treated control (NCI-H929 cells): more than a two fold increase
cells in the G2/M phase of the cell cycle ([9]; CYT387 1-5 μM, NCI-H929, OCI-MY1 and U266): marked accumulation of cells in the G2/M phase
polyploid population ([9]; CYT387 treated samples): additional polyploid population was found
cytotoxicity at 5 µM (NCI-H929 [10]; NCI-H929, 5 μM CYT387, 24 hours): 21%
cytotoxicity at 5 µM (NCI-H929 [10]; NCI-H929, 5 μM CYT387, 72 hours): 52%

— patent US20140171433A1, “MULTIPLE MYELOMA TREATMENT” (YM Biosciences Australia Pty Ltd, priority 2011, published 2014)
